Data as given in patent US9469642B2, “Purinone compounds as kinase inhibitors” (Pharmacyclics LLC, priority 2012, dated 2016).

How the values were obtained:
Format in all cases: biochemical
BTK = molecular target: T1, BTK (Homo sapiens, UniProt Q06187); assay: Btk in vitro inhibitory activity (kinase assay by one of Methods A, B or C)
T1 construct: purified from insect cells as a full-length construct containing a N-terminal 6×-His tag; His6 (N); host or cells: insect cells (baculovirus Sf21)
Description: (§1) Btk kinase activity is determined using a time-resolved fluorescence resonance energy transfer (TR-FRET) methodology. Measurements are performed in a reaction volume of 50 μL using 96-well assay plates. Kinase enzyme, inhibitor, ATP (at the Km for the kinase), and 1 peptide substrate (Biotin-AVLESEEELYSSARQ-NH2) are incubated in a reaction buffer composed of 20 mM Tris, 50 mM NaCl, MgCl2 (5-25 mM depending on the kinase), MnCl2 (0-10 mM), 1 mM DTT, 0.1 mM EDTA, 0.01% bovine serum albumin, 0.005% Tween-20, and 10% DMSO at pH 7.4 for one hour. The reaction is quenched by the addition of 1.2 equivalents of EDTA (relative to divalent cation) in 25 μL of 1× Lance buffer (Perkin-Elmer). Streptavidin-APC (Perkin-Elmer) and Eu-labeled p-Tyr100 antibody (Perkin-Elmer) in 1× Lance buffer are added in a 25 μL volume to give final concentrations of 100 nM and 2.5 nM, respectively, and the mixture is allowed to incubate for one hour. The TR-FRET signal is measured on a multimode plate reader with an excitation wavelength (λEx) of 330 nm and detection wavelengths (λEm) of 615 and 665 nm. Activity is determined by the ratio of the fluorescence at 665 nm to that at 615 nm. For each compound, enzyme activity is measured at various concentrations of compound. Negative control reactions are performed in the absence of inhibitor in replicates of six, and two no-enzyme controls are used to determine baseline fluorescence levels. Inhibition constants, Ki(app), were obtained using the program BatchKi (Kuzmic et al. (2000), Anal. Biochem. 286:45-50). IC50s are obtained according to the equation: IC50=[…]+[E]total/2;
(§2) For all kinases, [ATP]=Km^ATP, [Btk]total=0.5 nM and [Lck]total=6 nM.
(§3) Kinase activity is measured in vitro using electrophoretic mobility shift assay. The kinase reactions are assembled in a total volume of 25 μL in 384 well plates. The reactions comprise: BTK enzyme (1 nM, N-terminal His6-tagged, recombinant, full-length, human BTK purified from baculovirus Sf21 insect cell system), inhibitor, ATP (16 μM, the apparent Km for the kinase), fluorescently labeled peptide substrate (1 μM, FAM-GEEPLYWSFPAKKK-NH2) in a reaction buffer composed of 100 mM HEPES, pH7.5, 5 mM MgCl2 1 mM DTT, 0.1% bovine serum albumin, 0.01% Triton X-100, and 1% DMSO. The reaction is incubated for one hour and is quenched by the addition of 45 μL of termination buffer (100 mM HEPES, pH7.5, 0.01% Triton X-100, 30 mM EDTA). The terminated reactions are analyzed using 12 channel LabChip® 3000 microfluidic detection instrument (Caliper Life Sciences). The enzymatic phosphorylation of the peptide results in a change in net charge, enabling electrophoretic separation of product from substrate peptide. As substrate and product peptides are separated, two peaks of fluorescence are observed. Change in the relative fluorescence intensity of the substrate and product peaks is the parameter measured, reflecting enzyme activity. In the presence of an inhibitor, the ratio between product and substrate is altered:the signal of the product decreases, while the signal of the substrate increases.
(§4) Activity in each sample is determined as the product to sum ratio (PSR):P/(S+P), where P is the peak height of the product peptide and S is the peak height of the substrate peptide. For each compound, enzyme activity is measured at various concentrations (12 concentrations of compound spaced by 3× dilution intervals). Negative control samples (0%-inhibition in the absence of inhibitor) and positive control samples (100%-inhibition, in the presence of 20 mM EDTA) are assembled in replicates of four and are used to calculate %-inhibition values for each inhibitor at each concentration. Percent inhibition (Pinh) is determined using following equation: […]

EGFR = EGFR (Homo sapiens, UniProt P00533); assay: Kinase panel inhibition, EGFR (one of the methods of Example 76a, 76b, 76c)
Sequence of EGFR (P00533 25-1210, species assumed): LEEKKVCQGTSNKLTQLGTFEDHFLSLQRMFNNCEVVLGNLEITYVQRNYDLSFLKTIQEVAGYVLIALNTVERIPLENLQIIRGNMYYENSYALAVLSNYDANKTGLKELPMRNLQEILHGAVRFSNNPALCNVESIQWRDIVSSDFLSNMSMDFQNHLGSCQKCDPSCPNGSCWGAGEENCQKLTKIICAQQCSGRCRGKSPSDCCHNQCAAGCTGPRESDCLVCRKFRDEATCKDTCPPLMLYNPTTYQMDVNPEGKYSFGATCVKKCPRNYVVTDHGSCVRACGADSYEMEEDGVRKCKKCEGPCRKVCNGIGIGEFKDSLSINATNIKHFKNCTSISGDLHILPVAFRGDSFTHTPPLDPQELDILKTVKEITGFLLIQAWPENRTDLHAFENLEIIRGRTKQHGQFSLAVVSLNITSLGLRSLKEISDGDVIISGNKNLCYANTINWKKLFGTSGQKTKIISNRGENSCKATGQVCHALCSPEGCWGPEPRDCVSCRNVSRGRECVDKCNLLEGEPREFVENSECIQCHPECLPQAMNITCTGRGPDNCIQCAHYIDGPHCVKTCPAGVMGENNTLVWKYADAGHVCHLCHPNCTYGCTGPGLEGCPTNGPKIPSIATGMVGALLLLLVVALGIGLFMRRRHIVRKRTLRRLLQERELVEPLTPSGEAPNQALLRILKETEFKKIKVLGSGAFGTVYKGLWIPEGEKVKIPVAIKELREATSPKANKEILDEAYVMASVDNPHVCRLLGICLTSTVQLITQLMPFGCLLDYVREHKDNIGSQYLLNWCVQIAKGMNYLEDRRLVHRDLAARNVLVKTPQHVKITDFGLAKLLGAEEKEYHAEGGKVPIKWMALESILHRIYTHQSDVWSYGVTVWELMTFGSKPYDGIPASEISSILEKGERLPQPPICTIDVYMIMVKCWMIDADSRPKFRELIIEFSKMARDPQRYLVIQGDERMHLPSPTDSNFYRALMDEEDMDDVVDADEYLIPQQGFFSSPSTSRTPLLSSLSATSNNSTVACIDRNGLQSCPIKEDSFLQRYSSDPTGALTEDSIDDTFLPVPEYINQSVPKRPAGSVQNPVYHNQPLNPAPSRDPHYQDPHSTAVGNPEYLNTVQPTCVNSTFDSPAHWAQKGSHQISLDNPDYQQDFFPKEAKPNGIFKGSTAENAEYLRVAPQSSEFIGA
Description: as §1, §2, §3, §4

LCK = LCK (Homo sapiens, UniProt P06239); assay: Kinase panel inhibition, LCK (one of the methods of Example 76a, 76b, 76c)
Sequence of LCK (P06239 whole entry, species assumed): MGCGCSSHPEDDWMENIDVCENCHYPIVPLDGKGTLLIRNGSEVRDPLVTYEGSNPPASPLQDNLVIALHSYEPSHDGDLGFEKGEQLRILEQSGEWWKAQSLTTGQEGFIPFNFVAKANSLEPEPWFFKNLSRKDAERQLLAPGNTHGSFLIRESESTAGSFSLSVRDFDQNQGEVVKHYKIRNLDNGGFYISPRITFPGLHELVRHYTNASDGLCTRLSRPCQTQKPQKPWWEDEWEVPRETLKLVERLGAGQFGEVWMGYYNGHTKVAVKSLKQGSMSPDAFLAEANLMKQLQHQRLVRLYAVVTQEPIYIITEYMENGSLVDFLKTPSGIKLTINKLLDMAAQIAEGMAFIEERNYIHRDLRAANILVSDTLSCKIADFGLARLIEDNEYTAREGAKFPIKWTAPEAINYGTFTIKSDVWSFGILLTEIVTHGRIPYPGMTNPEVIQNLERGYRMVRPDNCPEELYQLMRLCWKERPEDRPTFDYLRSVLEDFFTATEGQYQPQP
Description: as §1, §2, §3, §4

T1 sequence (Q06187 whole entry): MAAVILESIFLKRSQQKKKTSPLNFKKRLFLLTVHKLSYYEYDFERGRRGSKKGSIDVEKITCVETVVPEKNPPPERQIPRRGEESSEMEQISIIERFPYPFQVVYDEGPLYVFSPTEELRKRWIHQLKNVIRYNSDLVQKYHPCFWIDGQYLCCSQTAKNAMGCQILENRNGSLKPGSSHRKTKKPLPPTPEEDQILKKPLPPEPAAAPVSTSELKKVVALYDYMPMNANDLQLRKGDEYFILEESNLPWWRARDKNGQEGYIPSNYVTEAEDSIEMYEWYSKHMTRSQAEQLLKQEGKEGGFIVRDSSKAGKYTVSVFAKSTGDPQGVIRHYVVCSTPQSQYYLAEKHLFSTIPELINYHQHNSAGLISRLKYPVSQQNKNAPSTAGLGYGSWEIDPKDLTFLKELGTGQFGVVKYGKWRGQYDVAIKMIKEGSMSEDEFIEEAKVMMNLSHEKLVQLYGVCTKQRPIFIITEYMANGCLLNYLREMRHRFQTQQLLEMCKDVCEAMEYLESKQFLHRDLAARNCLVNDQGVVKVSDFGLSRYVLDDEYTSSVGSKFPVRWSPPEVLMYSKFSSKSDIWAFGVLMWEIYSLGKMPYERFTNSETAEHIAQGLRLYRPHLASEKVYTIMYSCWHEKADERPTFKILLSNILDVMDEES

Structure (SMILES) | IC50 (BTK) [µM] | IC50 (EGFR) [µM] | IC50 (LCK) [µM]
CN(C/C=C/C(=O)N1CCOc2ccc(-n3c(=O)n(-c4ccc(Oc5ccccc5)cc4)c4c(N)ncnc43)cc21)C1CC1 [Compound 161, (E)-6-amino-9-(4-(4-(cyclopropyl(methyl)amino)but-2-enoyl)-3,4-dihydro-2H-benzo[b][1,4]oxazin-6-yl)-7-(4-phenoxyphenyl)-7H-purin-8(9H)-one] | < 0.1 | 0.1 to 1 | 1 to 10
CN(C)C/C=C/C(=O)N(C)[C@H]1CC[C@@H](n2c(=O)n(-c3ccc(Oc4ccccc4)cc3)c3c(N)ncnc32)CC1 [Compound 328, (E)-N-((1s,4s)-4-(6-amino-8-oxo-7-(4-phenoxyphenyl)-7H-purin-9(8H)-yl)cyclohexyl)-4-(dimethylamino)-N-methylbut-2-enamide] | < 0.1 | < 0.1 | < 0.1
CN(C/C=C/C(=O)N1CC[C@@H](n2c(=O)n(-c3ccc(Oc4ccccc4)cc3)c3c(N)ncnc32)C1)C1CC1 [Compound 63, (R,E)-6-amino-9-(1-(4-(cyclopropyl(methyl)amino)but-2-enoyl)pyrrolidin-3-yl)-7-(4-phenoxyphenyl)-7H-purin-8(9H)-one] | < 0.1 | 1 to 10 | 0.1 to 1
CN(C(=O)/C=C/CN(C)C1CC1)c1cccc(-n2c(=O)n(-c3ccc(OCc4cccc(F)c4)cc3)c3c(N)ncnc32)c1 [Compound 244, (E)-N-(3-(6-amino-7-(4-(3-fluorobenzyloxy)phenyl)-8-oxo-7H-purin-9(8H)-yl)phenyl)-4-(cyclopropyl(methyl)amino)-N-methylbut-2-enamide] | < 0.1 | 1 to 10 | > 10
COCCOc1cc(N(C)C(=O)/C=C/CN(C)C)cc(-n2c(=O)n(-c3ccc(C)c(OC)c3)c3c(N)ncnc32)c1 [Compound 147, (E)-N-(3-(6-amino-7-(3-methoxy-4-methylphenyl)-8-oxo-7H-purin-9(8H)-yl)-5-(2-methoxyethoxy)phenyl)-4-(dimethylamino)-N-methylbut-2-enamide] | < 0.1 | > 10 | > 10
C=CC(=O)N(C)c1ccc(-n2c(=O)n(-c3ccc(C)c(OC)c3)c3c(N)ncnc32)cc1 [Compound 55, N-(4-(6-amino-7-(3-methoxy-4-methylphenyl)-8-oxo-7H-purin-9(8H)-yl)phenyl)-N-methylacrylamide] | < 0.1 | 1 to 10 | 1 to 10
COc1ccc(-n2c(=O)n(-c3ccc(Oc4ccccc4)cc3)c3c(N)ncnc32)cc1N(C)C(=O)/C=C/CN(C)[C@H]1CCOC1 [Compound 313, (S,E)-N-(5-(6-amino-8-oxo-7-(4-phenoxyphenyl)-7H-purin-9(8H)-yl)-2-methoxyphenyl)-N-methyl-4-(methyl(tetrahydrofuran-3-yl)amino)but-2-enamide] | < 0.1 | 1 to 10 | 1 to 10
COCCOc1ccc(-n2c(=O)n(-c3ccc(C)c(OC)c3)c3c(N)ncnc32)cc1N(C)C(=O)/C=C/CN(C)C [Compound 104, (E)-N-(5-(6-amino-7-(3-methoxy-4-methylphenyl)-8-oxo-7H-purin-9(8H)-yl)-2-(2-methoxyethoxy)phenyl)-4-(dimethylamino)-N-methylbut-2-enamide] | 0.1 to 1 | > 10 | > 10
CN(C/C=C/C(=O)N1CC[C@@H](n2c(=O)n(-c3ccc(Oc4ccccc4)cc3)c3c(N)ncnc32)C1)C1CCC1 [Compound 64, (R,E)-6-amino-9-(1-(4-(cyclobutyl(methyl)amino)but-2-enoyl)pyrrolidin-3-yl)-7-(4-phenoxyphenyl)-7H-purin-8(9H)-one] | < 0.1 | 1 to 10 | 0.1 to 1
CN(C(=O)/C=C/CN(C)C1CCC1)c1ccc(-n2c(=O)n(-c3ccc(Cl)cc3)c3c(N)ncnc32)cc1 [Compound 50, (E)-N-(4-(6-amino-7-(4-chlorophenyl)-8-oxo-7H-purin-9(8H)-yl)phenyl)-4-(cyclobutyl(methyl)amino)-N-methylbut-2-enamide] | 0.1 to 1 | > 10 | 1 to 10

The remaining lines, values ahead:

IC50 (BTK) [µM] | IC50 (EGFR) [µM] | IC50 (LCK) [µM] | Structure (SMILES)
< 0.1 | < 0.1 | 0.1 to 1 | COCCN(C)C/C=C/C(=O)Nc1cccc(-n2c(=O)n(-c3ccc(Oc4ccccc4)cc3)c3c(N)ncnc32)c1 [Compound 318, (E)-N-(3-(6-amino-8-oxo-7-(4-phenoxyphenyl)-7H-purin-9(8H)-yl)phenyl)-4-((2-methoxyethyl)(methyl)amino)but-2-enamide]
< 0.1 | < 0.1 | 0.1 to 1 | CN(C)C/C=C/C(=O)Nc1cccc(-n2c(=O)n(-c3ccc(Oc4ccccc4)cc3)c3c(N)ncnc32)c1 [Compound 8, (E)-N-(3-(6-amino-8-oxo-7-(4-phenoxyphenyl)-7H-purin-9(8H)-yl)phenyl)-4-(dimethylamino)but-2-enamide]
< 0.1 | 0.1 to 1 | 1 to 10 | CN(C)C/C=C/C(=O)N(C)c1cccc(-n2c(=O)n(-c3ccc(Oc4ccccc4)cc3)c3c(N)ncnc32)c1 [Compound 33, (E)-N-(3-(6-amino-8-oxo-7-(4-phenoxyphenyl)-7H-purin-9(8H)-yl)phenyl)-4-(dimethylamino)-N-methylbut-2-enamide]
< 0.1 | 0.1 to 1 | 0.1 to 1 | CN(C(=O)/C(C#N)=C/C1CC1)c1cccc(-n2c(=O)n(-c3ccc(Oc4ccccc4)cc3)c3c(N)ncnc32)c1 [Compound 325, (E)-N-(3-(6-amino-8-oxo-7-(4-phenoxyphenyl)-7H-purin-9(8H)-yl)phenyl)-2-cyano-3-cyclopropyl-N-methylacrylamide]
< 0.1 | 0.1 to 1 | 1 to 10 | COCCN(C)C/C=C/C(=O)N(C)c1cccc(-n2c(=O)n(-c3ccc(Oc4ccccc4)cc3)c3c(N)ncnc32)c1 [Compound 134, (E)-N-(3-(6-amino-8-oxo-7-(4-phenoxyphenyl)-7H-purin-9(8H)-yl)phenyl)-4-((2-methoxyethyl)(methyl)amino)-N-methylbut-2-enamide]
< 0.1 | < 0.1 | < 0.1 | C=CC(=O)Nc1cccc(-n2c(=O)n(-c3ccc(Oc4ccccc4)cc3)c3c(N)ncnc32)c1 [Compound 11, N-(3-(6-amino-8-oxo-7-(4-phenoxyphenyl)-7H-purin-9(8H)-yl)phenyl)acrylamide]
< 0.1 | 0.1 to 1 | 1 to 10 | Cc1cc(N(C)C(=O)/C=C/CN(C)C2CC2)cc(-n2c(=O)n(-c3ccc(Oc4ccccc4)cc3)c3c(N)ncnc32)c1 [Compound 211, (E)-N-(3-(6-amino-8-oxo-7-(4-phenoxyphenyl)-7H-purin-9(8H)-yl)-5-methylphenyl)-4-(cyclopropyl(methyl)amino)-N-methylbut-2-enamide]
< 0.1 | 0.1 to 1 | 0.1 to 1 | Cc1cc(NC(=O)/C=C/CN(C)C2CC2)cc(-n2c(=O)n(-c3ccc(Oc4ccccc4)cc3)c3c(N)ncnc32)c1 [Compound 255, (E)-N-(3-(6-amino-8-oxo-7-(4-phenoxyphenyl)-7H-purin-9(8H)-yl)-5-methylphenyl)-4-(cyclopropyl(methyl)amino)but-2-enamide]
< 0.1 | 0.1 to 1 | 0.1 to 1 | CN(C(=O)/C=C/CNC1CC1)c1cccc(-n2c(=O)n(-c3ccc(Oc4ccccc4)cc3)c3c(N)ncnc32)c1 [Compound 118, (E)-N-(3-(6-amino-8-oxo-7-(4-phenoxyphenyl)-7H-purin-9(8H)-yl)phenyl)-4-(cyclopropylamino)-N-methylbut-2-enamide]
